# Experiments:
# [1] = tested on: IMR90 normal diploid fibroblasts; test: Northern blot of SISP-1 mRNA induction by genotoxic drugs; format: cell-based; conditions: IMR90 cells; etoposide 50 μM or CPT 600 nM, 24-48 hours; FIG. 4A
# Description: IMR90 normal diploid fibroblasts (Obtained from ATCC) were cultured in Dulbecco's modified Eagle's medium (DMEM, Invitrogen)) containing 10% fetal bovine serum (FBS, Hyclone), 100 units/ml of penicillin, and 100 μg/ml of streptomycin at 37° C. […] Then, total RNA was extracted, denatured, electrophoresed through a 1% agarose-formaldehyde gel and transferred to a nylon membrane. Hybridization was performed with ^32P-labeled probes, SISP1, p21 or 36B4 (a loading control) prepared by the randomly primed DNA labeling method.
# [2] = tested on: HCT116 colon carcinoma cells; test: Cell death Elisa (DNA fragmentation) after adenoviral SISP-1 infection; format: cell-based, human; conditions: etoposide 30 μM, 24 hours, 12 hour post infection
# Description: (§1) Next, the inventor investigated the apoptotic effects of SISP-1 expression in human colon cancer cells and breast carcinoma cells by using adenovirus expressing SISP-1. […] Adenoviruses expressing HA-tagged SISP-1 (Ad-SISP-1) or GFP (Ad-GFP as a control) were generated, amplified and titrated. HCT 116 colon carcinoma cells and MDAMB435 breast cancer cells were grown to 50-70% confluency and infected with recombinant adenovirus at multiplicity of infection (MOI) of 15-30. […] Then, cell death rate was measured by DNA fragmentation assay (Cell death Elisa kit, Roche).
# [3] = tested on: MDAMB435 breast cancer cells; test: as above; format: cell-based, human; conditions: etoposide 30 μM, 24 hours, 12 hour post infection
# Description: as §1
# [4] = tested on: EJ bladder carcinoma cells; test: Etoposide-induced cell death with inducible SISP-1 (FIG. 10); format: cell-based, human; conditions: over 48 hours
# Excerpt: (§2) The present inventor further examined whether SISP-1 could also sensitize U2OS cells that is known to be quite resistant to chemo-drugs.
# (§3) The inventor re-evaluated this effect in a rapidly growing human bladder carcinoma cell line, EJ, since SISP-1 may be used a strong candidate as a new sensitizing molecule that improves the therapeutic efficacy and minimizes the toxicity of chemo-drugs. To further confirm the sensitizing effects of SISP-1 expression in a combination of chemo-drugs, we generated tumor cells containing the tetracycline-regulated inducible expression of SISP-1 using U2OS and EJ lines.
# [5] = tested on: U2OS osteosarcoma cells; test: Cell-Death Elisa, tetracycline-inducible SISP-1 plus etoposide; format: cell-based; conditions: SISP-1 or etoposide (15 μM) alone, FIG. 9A
# Description: U2OS-tet-on-SISP-1 cells were generated by isolating tetracycline regulated stable-clones expressing SISP-1 upon tetracycline addition (doxycycline, Sigma). U2OS-SISP-1 cells were cultured in the presence or absence of doxycycline (1 μg/ml) for 24 hours.
# [6] = tested on: U2OS osteosarcoma cells; test: Etoposide-induced cell death with inducible SISP-1 (FIG. 10); format: cell-based; conditions: over 48 hours
# Excerpt: as §2, §3
Compound,expression of SISP-1 mRNA [1],sensitization of SISP-1 overexpressing cells by etoposide [2],sensitization of SISP-1 overexpressing cells by etoposide [3],cell death by etoposide itself [4],cell death by single treatment [5],cell death by etoposide itself [6]
"CC[C@@]1(O)C(=O)OCc2c1cc1n(c2=O)Cc2cc3ccccc3nc2-1 [CPT, camptothecin]",induced,–,–,–,–,–
"COc1cc([C@@H]2c3cc4c(cc3[C@@H](O[C@@H]3O[C@@H]5CO[C@@H](C)O[C@H]5[C@H](O)[C@H]3O)[C@H]3COC(=O)[C@H]23)OCO4)cc(OC)c1O [etoposide, reference compound]",–,selectively sensitized,selectively sensitized,induced a limited cell death,did not induce cell death,induced a limited cell death

# Reference: US7655778B2, “SISP-1, a novel p53 target gene and use thereof” (priority 2006, dated 2010)
